Results published in patent US12612627B2, “Compositions and methods for increasing sodium current in cardiac cells” (REGENTS OF THE UNIVERSITY OF MINNESOTA, priority 2020, dated 2026).

Tests used:
miR-448 = miR-448 level by qPCR in RL14 human cardiomyocytes; type: cell-based; conditions: for miR-448 expression: RL14 cells stimulated with hypoxia-mimetic chemical for 24 hours, normalized with RNU6; for increase of miR-448 by deferoxamine: then deferoxamine six hours
Description: Human fetal cardiomyocyte cell line RL14 (ATCC RL-14, ATCC, Manassas, VA) cells were grown in DMEM/F-12 nutrient mixture (GE Healthcare Life Sciences, Logan, UT) supplemented with 12.5% (v/v) fetal bovine serum (Gibco, Grand Island, NY) and penicillin-streptomycin (10,000 U/mL; Gibco, Grand Island, NY). HEK293T cells were maintained in DMEM high glucose supplemented with 10% fetal bovine serum and penicillin-streptomycin. hiPSC-cardiomyocytes (iCELL Cardiomyocytes) were obtained from Cellular Dynamics International (Madison, WI). iCELL cardiomyocytes were seeded and maintained using iCELL Cardiomyocyte Plating Medium and Maintenance Medium (FUJIFILM Cellular Dynamics, Inc., Madison, WI). For hypoxic conditions, the cells were cultured in an hypoxic incubator chamber (STEMCELL Technologies, Vancouver, BC) using pre-incubated culture media or were treated with hypoxic-mimetic chemicals, deferoxamine (DFX) and cobalt chloride (CoCl2) (Sigma-Aldrich, St. Louis, MO) as previously described (Chachami et al., 2004, Am J Respir Cell Mol Biol 31:544-551; Woo et al, 2006, Biochem Biophys Res Commun 343:8-14).
Syn-hsa-miR-448 miScript miRNA mimic, anti-hsa-miR-448 miScript miRNA inhibitor, and its negative controls were purchased from Qiagen (Valencia, CA). REST siRNA and its negative control were obtained from Integrated DNA Technologies (Coralville, IA). The cells were transfected using HiPerFect Transfection Reagent (Qiagen, Valencia, CA) following the recommendations of the manufacturer. Plasmid DNA was transfected into cultured cells using SuperFect transfection reagent (Qiagen, Valencia, CA) following the manufacturer's protocol.
Total RNA was prepared using RNeasy Plus Mini Kit or miRNeasy Mini Kit (Qiagen, Valencia, CA) according to the manufacturer's instructions. Reverse transcription was performed with a First Strand cDNA Synthesis kit (Promega, Madison, WI). cDNA for miRNA detection was generated by the miScript II RT Kit (Qiagen, Valencia, CA). A reverse transcription quantitative real-time PCR was performed with SYBR Green PCR Master Mix (Thermo Fisher Scientific, Waltham, MA) using the 7500Fast Real-Time PCR system (Thermo Fisher Scientific, Waltham, MA) and miScript SYBR Green PCR Kit with miScript primer assays to detect the expression of miRNA. The primer sequences were as follows:
Hs_miR-448_1 miScript Primer Assay (5′-[…]-3′; (SEQ ID NO:1; Qiagen, Valencia, CA) was used for detecting miR-448, and the Hs_RNU6-2_11 miScript Primer Assay (Qiagen, Valencia, CA) was used as an endogenous control. The relative fold change was calculated by the 2^−ΔΔCt method, and the measurements were normalized with respect to the endogenous control (RNU6, GAPDH).

Nav1.5 = Nav1.5 protein level by Western blotting in RL14 human cardiomyocytes; type: cell-based; conditions: cardiomyocytes treated for 24 hours
Description: Human fetal cardiomyocyte cell line RL14 (ATCC RL-14, ATCC, Manassas, VA) cells were grown in DMEM/F-12 nutrient mixture (GE Healthcare Life Sciences, Logan, UT) supplemented with 12.5% (v/v) fetal bovine serum (Gibco, Grand Island, NY) and penicillin-streptomycin (10,000 U/mL; Gibco, Grand Island, NY). HEK293T cells were maintained in DMEM high glucose supplemented with 10% fetal bovine serum and penicillin-streptomycin. hiPSC-cardiomyocytes (iCELL Cardiomyocytes) were obtained from Cellular Dynamics International (Madison, WI). iCELL cardiomyocytes were seeded and maintained using iCELL Cardiomyocyte Plating Medium and Maintenance Medium (FUJIFILM Cellular Dynamics, Inc., Madison, WI). […]
Cells were washed twice with ice-cold PBS and disrupted in Cell Lysis Buffer (Cell Signaling Technology, Danvers, MA) with Protease and Phosphatase Inhibitor Cocktail (Thermo Fisher Scientific, Waltham, MA) on ice for 30 minutes. […] The total protein concentration was quantified using the BCA Protein Assay Kit (Pierce, Thermo Fisher Scientific, Waltham, MA). […]
After TBST washing, the membrane was incubated with horseradish peroxidase (HRP)-conjugated secondary antibody (1:5000) for 90 min at room temperature. […] The images were analyzed using ImageJ software to measure band density. […]

With `[Cl][Co][Cl]` [cobalt chloride] the miR-448 expression (miR-448) was “increased”.

With `Cc1ccc(S(=O)(=O)/C=C/C#N)cc1` [Bay11-7028] the “increase of miR-448 by deferoxamine” value (miR-448; 0.5 μM or 2 μM for 30 minutes) was “inhibited”.

In the case of `O=S(=O)(NCCSSCCNS(=O)(=O)c1cc(Cl)ccc1Cl)c1cc(Cl)ccc1Cl` [KC7F2], the “increase of miR-448 by deferoxamine” value (miR-448; 5 μM or 20 μM for 30 minutes) is reported as “inhibited”.

With `COC(=O)CNC(=O)C(=O)OC` [dimethyloxallyl glycine] the miR-448 expression (miR-448) was “increased”.

`C=CCONC(=O)c1ccc2nc(-c3ccccc3O)[nH]c2c1` [X5050] was tested, and the Nav1.5 protein level (Nav1.5) was “decreased”.
